EPA's aquatic toxicity sets

Tests used:
Pimephales promelas = assay: 96 h LC50 (-log10 mol/L); higher = more toxic
Daphnia magna = assay: 48 h LC50 (-log10 mol/L); higher = more toxic

## O=C(Nc1ccc(Cl)cc1)Nc1ccc(Cl)c(Cl)c1
Pimephales promelas
  96 h LC50 (-log10 mol/L): 6.54
Daphnia magna
  48 h LC50 (-log10 mol/L): 7.48

## COP(=S)(OC)SCN1C(=O)c2ccccc2C1=O
Pimephales promelas
  96 h LC50 (-log10 mol/L): 4.59
Daphnia magna
  48 h LC50 (-log10 mol/L): 5.6

## C1=CC2C3C=CC(C3)C2C1 (stereo not drawn)
Pimephales promelas
  96 h LC50 (-log10 mol/L): 3.41
Daphnia magna
  48 h LC50 (-log10 mol/L): 4.1

## CC(N)=S
Pimephales promelas
  96 h LC50 (-log10 mol/L): 2.44
Daphnia magna
  48 h LC50 (-log10 mol/L): 3.64

## NC(=O)c1c(Cl)cccc1Cl
Pimephales promelas
  96 h LC50 (-log10 mol/L): 2.61
Daphnia magna
  48 h LC50 (-log10 mol/L): 2.35

## ClC(Cl)=C(Cl)Cl
Pimephales promelas
  96 h LC50 (-log10 mol/L): 3.96
Daphnia magna
  48 h LC50 (-log10 mol/L): 4

## ClC(Cl)C(Cl)(Cl)Cl
Pimephales promelas
  96 h LC50 (-log10 mol/L): 4.43
Daphnia magna
  48 h LC50 (-log10 mol/L): 4.19

## CCCCOC(=O)c1ccccc1C(=O)OCc1ccccc1
Pimephales promelas
  96 h LC50 (-log10 mol/L): 5.22
Daphnia magna
  48 h LC50 (-log10 mol/L): 5.19

## CC1(C)C(C=C(Cl)Cl)C1C(=O)OC(C#N)c1ccc(F)c(Oc2ccccc2)c1 (stereo not drawn)
Pimephales promelas
  96 h LC50 (-log10 mol/L): 8.6
Daphnia magna
  48 h LC50 (-log10 mol/L): 9.13

## CC(C)CO
Pimephales promelas
  96 h LC50 (-log10 mol/L): 1.7
Daphnia magna
  48 h LC50 (-log10 mol/L): 1.82

## ClCCl
Pimephales promelas
  96 h LC50 (-log10 mol/L): 2.42
Daphnia magna
  48 h LC50 (-log10 mol/L): 2.66

## Cc1cccc(C)c1
Pimephales promelas
  96 h LC50 (-log10 mol/L): 3.82
Daphnia magna
  48 h LC50 (-log10 mol/L): 3.65

## CCNCC
Pimephales promelas
  96 h LC50 (-log10 mol/L): 1.93
Daphnia magna
  48 h LC50 (-log10 mol/L): 3.12

## CCOCC
Pimephales promelas
  96 h LC50 (-log10 mol/L): 1.46
Daphnia magna
  48 h LC50 (-log10 mol/L): 1.73

## CCCCCCCCn1sccc1=O
Pimephales promelas
  96 h LC50 (-log10 mol/L): 6.18
Daphnia magna
  48 h LC50 (-log10 mol/L): 6.07

## CC(Cl)(Cl)Cl
Pimephales promelas
  96 h LC50 (-log10 mol/L): 3.4
Daphnia magna
  48 h LC50 (-log10 mol/L): 3.72

## CC(Cl)CCl (stereo not drawn)
Pimephales promelas
  96 h LC50 (-log10 mol/L): 2.93
Daphnia magna
  48 h LC50 (-log10 mol/L): 3.34

## Oc1c(Cl)cc(Cl)c(Cl)c1Cl
Pimephales promelas
  96 h LC50 (-log10 mol/L): 5.35
Daphnia magna
  48 h LC50 (-log10 mol/L): 6.11

## CNC(=O)O/N=C/C(C)(C)SC
Pimephales promelas
  96 h LC50 (-log10 mol/L): 5.17
Daphnia magna
  48 h LC50 (-log10 mol/L): 5.55

## COP(=S)(OC)Oc1ccc([N+](=O)[O-])cc1
Pimephales promelas
  96 h LC50 (-log10 mol/L): 4.51
Daphnia magna
  48 h LC50 (-log10 mol/L): 7.34

## CCC1(c2ccccc2)C(=O)NC(=O)NC1=O
Pimephales promelas
  96 h LC50 (-log10 mol/L): 2.68
Daphnia magna
  48 h LC50 (-log10 mol/L): 2.2

## C=C(C)[C@H]1Cc2c(ccc3c2O[C@@H]2COc4cc(OC)c(OC)cc4[C@@H]2C3=O)O1
Pimephales promelas
  96 h LC50 (-log10 mol/L): 7.82
Daphnia magna
  48 h LC50 (-log10 mol/L): 8.03

## CCC(O)C(C)CO (stereo not drawn)
Pimephales promelas
  96 h LC50 (-log10 mol/L): 1.13
Daphnia magna
  48 h LC50 (-log10 mol/L): 1.22

## CCN(CC)C(=O)c1cccc(C)c1
Pimephales promelas
  96 h LC50 (-log10 mol/L): 3.24
Daphnia magna
  48 h LC50 (-log10 mol/L): 3.08

## ClC1=C(Cl)[C@]2(Cl)[C@@H]3[C@@H]4C[C@@H]([C@H]5O[C@@H]45)[C@@H]3[C@@]1(Cl)C2(Cl)Cl
Pimephales promelas
  96 h LC50 (-log10 mol/L): 7.21
Daphnia magna
  48 h LC50 (-log10 mol/L): 6.51

## C=CC#N
Pimephales promelas
  96 h LC50 (-log10 mol/L): 3.57
Daphnia magna
  48 h LC50 (-log10 mol/L): 3.78

## O=C(O)COc1ccc(Cl)cc1Cl
Pimephales promelas
  96 h LC50 (-log10 mol/L): 2.92
Daphnia magna
  48 h LC50 (-log10 mol/L): 3.78

## COP(=S)(OC)Oc1ccc(SC)c(C)c1
Pimephales promelas
  96 h LC50 (-log10 mol/L): 4.94
Daphnia magna
  48 h LC50 (-log10 mol/L): 6.79

## CCc1ccccc1
Pimephales promelas
  96 h LC50 (-log10 mol/L): 3.95
Daphnia magna
  48 h LC50 (-log10 mol/L): 4.5

## OCCO
Pimephales promelas
  96 h LC50 (-log10 mol/L): 0.037
Daphnia magna
  48 h LC50 (-log10 mol/L): 0.122

## Clc1ccccc1-c1ccccc1
Pimephales promelas
  96 h LC50 (-log10 mol/L): 4.67
Daphnia magna
  48 h LC50 (-log10 mol/L): 5.42

## CCCCC(CC)COC(=O)c1ccccc1C(=O)OCC(CC)CCCC (stereo not drawn)
Pimephales promelas
  96 h LC50 (-log10 mol/L): 2.55
Daphnia magna
  48 h LC50 (-log10 mol/L): 4.55

## C1CCCCC1
Pimephales promelas
  96 h LC50 (-log10 mol/L): 3.3
Daphnia magna
  48 h LC50 (-log10 mol/L): 4.34

## c1ccc(Oc2ccccc2)cc1
Pimephales promelas
  96 h LC50 (-log10 mol/L): 4.63
Daphnia magna
  48 h LC50 (-log10 mol/L): 5.43

## CCOP(=S)(OCC)SCSC(C)(C)C
Pimephales promelas
  96 h LC50 (-log10 mol/L): 6.81
Daphnia magna
  48 h LC50 (-log10 mol/L): 8.21

## Clc1cccc(-c2ccccc2)c1
Pimephales promelas
  96 h LC50 (-log10 mol/L): 4.38
Daphnia magna
  48 h LC50 (-log10 mol/L): 5.64

## O=C1C2(Cl)C3(Cl)C4(Cl)C(Cl)(Cl)C5(Cl)C3(Cl)C1(Cl)C5(Cl)C24Cl (stereo not drawn)
Pimephales promelas
  96 h LC50 (-log10 mol/L): 6.11
Daphnia magna
  48 h LC50 (-log10 mol/L): 6.39

## CCCCOC(=O)c1ccccc1C(=O)OCCCC
Pimephales promelas
  96 h LC50 (-log10 mol/L): 5.37
Daphnia magna
  48 h LC50 (-log10 mol/L): 4.88

## C1CO1
Pimephales promelas
  96 h LC50 (-log10 mol/L): 2.72
Daphnia magna
  48 h LC50 (-log10 mol/L): 2.33

## c1cc2c3c(cccc3c1)CC2
Pimephales promelas
  96 h LC50 (-log10 mol/L): 4.98
Daphnia magna
  48 h LC50 (-log10 mol/L): 3.58

## Oc1ccc2ccccc2c1
Pimephales promelas
  96 h LC50 (-log10 mol/L): 4.62
Daphnia magna
  48 h LC50 (-log10 mol/L): 4.61

## CCOP(=S)(OCC)Oc1cc(C)nc(C(C)C)n1
Pimephales promelas
  96 h LC50 (-log10 mol/L): 4.81
Daphnia magna
  48 h LC50 (-log10 mol/L): 8.56

## CC1(C)[C@H](C=C2CCCC2)[C@H]1C(=O)OCc1coc(Cc2ccccc2)c1
Pimephales promelas
  96 h LC50 (-log10 mol/L): 8.57
Daphnia magna
  48 h LC50 (-log10 mol/L): 8.16

## CCCN(CCC)c1c([N+](=O)[O-])cc(C(C)C)cc1[N+](=O)[O-]
Pimephales promelas
  96 h LC50 (-log10 mol/L): 5.85
Daphnia magna
  48 h LC50 (-log10 mol/L): 7.01

## COP(=S)(OC)Oc1ccc([N+](=O)[O-])c(C)c1
Pimephales promelas
  96 h LC50 (-log10 mol/L): 4.81
Daphnia magna
  48 h LC50 (-log10 mol/L): 7.67

## c1ccc2c(c1)-c1cccc3cccc-2c13
Pimephales promelas
  96 h LC50 (-log10 mol/L): 6.77
Daphnia magna
  48 h LC50 (-log10 mol/L): 6.28

## ClC=C(Cl)Cl
Pimephales promelas
  96 h LC50 (-log10 mol/L): 3.47
Daphnia magna
  48 h LC50 (-log10 mol/L): 3.48

## CNC(=O)ON=C(C)SC
Pimephales promelas
  96 h LC50 (-log10 mol/L): 4.89
Daphnia magna
  48 h LC50 (-log10 mol/L): 6.96

## Cc1ccc([N+](=O)[O-])cc1
Pimephales promelas
  96 h LC50 (-log10 mol/L): 3.44
Daphnia magna
  48 h LC50 (-log10 mol/L): 4.01

## ClC(Cl)C(Cl)Cl
Pimephales promelas
  96 h LC50 (-log10 mol/L): 3.92
Daphnia magna
  48 h LC50 (-log10 mol/L): 3.46

## CC=O
Pimephales promelas
  96 h LC50 (-log10 mol/L): 3.08
Daphnia magna
  48 h LC50 (-log10 mol/L): 0.55

## CCOP(=S)(OCC)SCSCC
Pimephales promelas
  96 h LC50 (-log10 mol/L): 6.02
Daphnia magna
  48 h LC50 (-log10 mol/L): 7.13

## CCN(CC)c1nc(C)cc(OP(=S)(OC)OC)n1
Pimephales promelas
  96 h LC50 (-log10 mol/L): 5.09
Daphnia magna
  48 h LC50 (-log10 mol/L): 9.14

## CCOC(=O)CC(SP(=S)(OC)OC)C(=O)OCC (stereo not drawn)
Pimephales promelas
  96 h LC50 (-log10 mol/L): 4.42
Daphnia magna
  48 h LC50 (-log10 mol/L): 8.35

## CC(C)c1ccc2c(c1)CC[C@H]1[C@](C)(C(=O)O)CCC[C@]21C
Pimephales promelas
  96 h LC50 (-log10 mol/L): 4.97
Daphnia magna
  48 h LC50 (-log10 mol/L): 4.56

## S=c1[nH]c2ccccc2s1
Pimephales promelas
  96 h LC50 (-log10 mol/L): 4.18
Daphnia magna
  48 h LC50 (-log10 mol/L): 4.49

## CCOP(=O)(OCC)Oc1ccc([N+](=O)[O-])cc1
Pimephales promelas
  96 h LC50 (-log10 mol/L): 5.98
Daphnia magna
  48 h LC50 (-log10 mol/L): 9.14

## O=C(O)CNCP(=O)(O)O
Pimephales promelas
  96 h LC50 (-log10 mol/L): 4.57
Daphnia magna
  48 h LC50 (-log10 mol/L): 3.91

## OCCOCCOCCO
Pimephales promelas
  96 h LC50 (-log10 mol/L): 0.309
Daphnia magna
  48 h LC50 (-log10 mol/L): 0.46

## CCNc1nc(Cl)nc(NC(C)C)n1
Pimephales promelas
  96 h LC50 (-log10 mol/L): 4.16
Daphnia magna
  48 h LC50 (-log10 mol/L): 3.6

## Clc1ccc(C(c2ccc(Cl)cc2)C(Cl)(Cl)Cl)cc1
Pimephales promelas
  96 h LC50 (-log10 mol/L): 7.27
Daphnia magna
  48 h LC50 (-log10 mol/L): 8.27

## COP(=O)(OC)C(O)C(Cl)(Cl)Cl (stereo not drawn)
Pimephales promelas
  96 h LC50 (-log10 mol/L): 3.37
Daphnia magna
  48 h LC50 (-log10 mol/L): 7.7

## ClC(Cl)(Cl)C(Cl)(Cl)Cl
Pimephales promelas
  96 h LC50 (-log10 mol/L): 5.24
Daphnia magna
  48 h LC50 (-log10 mol/L): 4.93

## ClCC(Cl)CCl
Pimephales promelas
  96 h LC50 (-log10 mol/L): 3.41
Daphnia magna
  48 h LC50 (-log10 mol/L): 3.65

## CCCN(CCC)c1c([N+](=O)[O-])cc(C(F)(F)F)cc1[N+](=O)[O-]
Pimephales promelas
  96 h LC50 (-log10 mol/L): 6.5
Daphnia magna
  48 h LC50 (-log10 mol/L): 6.24

## CC1=CC(=O)CC(C)(C)C1
Pimephales promelas
  96 h LC50 (-log10 mol/L): 2.74
Daphnia magna
  48 h LC50 (-log10 mol/L): 3.06

## CC(C)[C@H](C(=O)O[C@H](C#N)c1cccc(Oc2ccccc2)c1)c1ccc(Cl)cc1
Pimephales promelas
  96 h LC50 (-log10 mol/L): 9.26
Daphnia magna
  48 h LC50 (-log10 mol/L): 8.58

## Clc1ccc(Cl)c(-c2ccccc2Cl)c1
Pimephales promelas
  96 h LC50 (-log10 mol/L): 6.88
Daphnia magna
  48 h LC50 (-log10 mol/L): 6.67

## CC(C)(c1ccc(O)cc1)c1ccc(O)cc1
Pimephales promelas
  96 h LC50 (-log10 mol/L): 4.69
Daphnia magna
  48 h LC50 (-log10 mol/L): 4.3
